Assay results from patent US20260209234A1, “SUBSTITUTED DIHYDROPYRROLO[3,4-D]PYRIMIDINE COMPOUNDS AND THEIR USE IN TREATING MEDICAL CONDITIONS” (Karuna Therapeutics, Inc., priority 2022, published 2026).

How the values were obtained:
rM4 receptors = molecular target: T1, rM4 receptors (Rattus norvegicus, UniProt P08485); experiment: Rat M4 PAM pERK assay; type: cell-based; conditions: CHO cells expressing rM4; EC20 of acetylcholine (10 nM final); TR-FRET
T1 construct: expressed in transfected cells; host or cells: CHO cells
T1 sequence (P08485 1-478): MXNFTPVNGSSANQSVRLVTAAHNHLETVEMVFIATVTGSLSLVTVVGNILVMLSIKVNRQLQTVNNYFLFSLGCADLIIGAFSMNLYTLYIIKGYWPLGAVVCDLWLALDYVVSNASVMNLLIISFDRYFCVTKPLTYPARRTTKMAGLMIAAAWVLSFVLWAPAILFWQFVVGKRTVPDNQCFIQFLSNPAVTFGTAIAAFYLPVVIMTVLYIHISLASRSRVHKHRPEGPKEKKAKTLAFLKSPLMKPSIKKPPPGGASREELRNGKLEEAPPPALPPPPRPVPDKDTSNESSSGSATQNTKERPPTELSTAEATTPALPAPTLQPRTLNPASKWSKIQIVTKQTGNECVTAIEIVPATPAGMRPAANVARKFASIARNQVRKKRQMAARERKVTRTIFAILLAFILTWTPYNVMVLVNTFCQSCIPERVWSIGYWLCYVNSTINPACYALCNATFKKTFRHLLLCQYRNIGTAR

hM4 receptors = molecular target: T2, hM4 receptors (Homo sapiens, UniProt P08173); experiment: Human M4 PAM pERK assay; type: cell-based; conditions: CHO cells expressing hM4; EC20 of acetylcholine (10 nM final); TR-FRET
T2 construct: expressed in transfected cells; host or cells: CHO cells
T2 sequence (P08173 1-479): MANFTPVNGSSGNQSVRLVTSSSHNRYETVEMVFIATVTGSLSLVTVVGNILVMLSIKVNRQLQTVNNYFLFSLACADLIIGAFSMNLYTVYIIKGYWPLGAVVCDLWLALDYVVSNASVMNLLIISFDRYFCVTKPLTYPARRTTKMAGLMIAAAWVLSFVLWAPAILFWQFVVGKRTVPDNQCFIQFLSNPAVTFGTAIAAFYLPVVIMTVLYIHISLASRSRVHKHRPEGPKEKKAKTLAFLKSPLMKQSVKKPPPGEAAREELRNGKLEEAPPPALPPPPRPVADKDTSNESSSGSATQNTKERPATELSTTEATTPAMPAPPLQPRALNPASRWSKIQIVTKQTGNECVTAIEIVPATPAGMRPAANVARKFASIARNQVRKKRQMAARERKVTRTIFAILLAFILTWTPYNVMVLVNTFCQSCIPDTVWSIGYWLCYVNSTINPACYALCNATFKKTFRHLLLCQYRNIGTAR

human M4 receptor = molecular target: T3, human M4 receptor (Homo sapiens, UniProt P08173); experiment: M4 GTPγS PAM assay; type: biochemical; conditions: membranes of CHO-K1 cells stably expressing human M4; EC20 acetylcholine 40 nM; 35S-GTP
T3 construct: expressed in transfected cells
T3 sequence (P08173 1-479): T2 sequence (P08173 1-479)
Summary of the method: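 CHO-K1 membranes stably expressing human M4, preincubated with compound and 0.1 μM GDP (final) in 20 mM HEPES, 10 mM MgCl2, 100 mM NaCl, pH 7.4, then EC20 acetylcholine (40 nM final). 35S-GTPγS binding 1 h at room temperature, filtration and scintillation counting.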

Row | SMILES | EC50 (rM4 receptors) [µM] | EC50 (hM4 receptors) [µM] | EC50 (human M4 receptor) [µM]
1 | COc1nc(C)nc2c1C(C)N(C(=O)CC1CN(c3ccc(C#N)cc3)C1)C2 (single isomer, unassigned) [Compound I-57, 4-(3-(2-(4-Methoxy-2,5-dimethyl-5,7-dihydro-6H-pyrrolo[3,4-d]pyrimidin-6-yl)-2-oxoethyl)azetidin-1-yl)benzonitrile] | ≥ 2 | ≥ 2 | 0.5 to 2
2 | COc1nc(C)nc2c1CN(C(=O)CC1CN(c3ccnc(C(F)(F)F)c3)C1)C2C (single isomer, unassigned) [Compound I-63, 1-(4-Methoxy-2,7-dimethyl-5,7-dihydro-6H-pyrrolo[3,4-d]pyrimidin-6-yl)-2-(1-(2-(trifluoromethyl)pyridin-4-yl)azetidin-3-yl)ethan-1-one] | ≥ 2 | 0.5 to 2 | 0.5 to 2
3 | COc1nc(OC)c2c(n1)C(C)N(C(=O)CC1CN(c3ccnc(C(F)(F)F)c3)C1)C2 (single isomer, unassigned) [Compound I-71, 1-(2,4-Dimethoxy-7-methyl-5,7-dihydro-6H-pyrrolo[3,4-d]pyrimidin-6-yl)-2-(1-(2-(trifluoromethyl)pyridin-4-yl)azetidin-3-yl)ethan-1-one] | ≥ 2 | 0.5 to 2 | 0.5 to 2
4 | COc1nc(C)nc2c1CN(C(=O)CC1CN(c3ccc(C(F)(F)F)nc3)C1)C2 [Compound I-44, 1-(4-Methoxy-2-methyl-5,7-dihydro-6H-pyrrolo[3,4-d]pyrimidin-6-yl)-2-(1-(6-(trifluoromethyl)pyridin-3-yl)azetidin-3-yl)ethan-1-one] | 0.5 to 2 | ≥ 2 | ≥ 2
5 | COc1nc(C)c2c(n1)CN(C(=O)CC1CN(c3ccnc(C(F)(F)F)c3)C1)C2 [Compound I-75, 1-(2-Methoxy-4-methyl-5,7-dihydro-6H-pyrrolo[3,4-d]pyrimidin-6-yl)-2-(1-(2-(trifluoromethyl)pyridin-4-yl)azetidin-3-yl)ethan-1-one] | ≥ 2 | 0.1 to 0.5 | 0.1 to 0.5
6 | COc1nc2c(c(OC)n1)C(C)N(C(=O)CC1CN(c3ccnc(C(F)(F)F)c3)C1)C2 (racemic) [Compound I-67, 1-(2,4-Dimethoxy-5-methyl-5,7-dihydro-6H-pyrrolo[3,4-d]pyrimidin-6-yl)-2-(1-(2-(trifluoromethyl)pyridin-4-yl)azetidin-3-yl)ethan-1-one] | 0.5 to 2 | 0.1 to 0.5 | ≤ 0.1
7 | COc1nc(C#N)nc2c1C(C)N(C(=O)CC1CN(c3ccnc(C(F)(F)F)c3)C1C)C2 (single isomer, unassigned) [Compound I-36, 4-Methoxy-5-methyl-6-(2-(2-methyl-1-(2-(trifluoromethyl)pyridin-4-yl)azetidin-3-yl)acetyl)-6,7-dihydro-5H-pyrrolo[3,4-d]pyrimidine-2-carbonitrile] | ≤ 0.1 | ≤ 0.1 | ≤ 0.1
8 | COc1cc(N2CC(CC(=O)N3Cc4nc(C#N)nc(OC)c4C3C)C2)cc(C(F)(F)F)n1 (stereo not drawn) [Compound I-31, 4-Methoxy-6-(2-(1-(2-methoxy-6-(trifluoromethyl)pyridin-4-yl)azetidin-3-yl)acetyl)-5-methyl-6,7-dihydro-5H-pyrrolo[3,4-d]pyrimidine-2-carbonitrile] | ≥ 2 | 0.1 to 0.5 | ≥ 2
9 | COc1nc(C#N)nc2c1CN(C(=O)CC1CN(c3ccnc(C(F)(F)F)c3)C1)C2C (single isomer, unassigned) [Compound I-34, 4-Methoxy-7-methyl-6-(2-(1-(2-(trifluoromethyl)pyridin-4-yl)azetidin-3-yl)acetyl)-6,7-dihydro-5H-pyrrolo[3,4-d]pyrimidine-2-carbonitrile] | ≥ 2 | 0.5 to 2 | 0.5 to 2
10 | COc1nc(C#N)nc2c1C(C)N(C(=O)CC1CN(c3ccnc(C(F)(F)F)c3)C1)C2 (single isomer, unassigned) [Compound I-5, 4-Methoxy-5-methyl-6-(2-(1-(2-(trifluoromethyl)pyridin-4-yl)azetidin-3-yl)acetyl)-6,7-dihydro-5H-pyrrolo[3,4-d]pyrimidine-2-carbonitrile] | ≥ 2 | ≥ 2 | ≥ 2
11 | COc1nc(C#N)nc2c1C(C)N(C(=O)CC1CN(c3ccnc(C4CC4)c3)C1)C2 (single isomer, unassigned) [Compound I-11, 6-(2-(1-(2-Cyclopropylpyridin-4-yl)azetidin-3-yl)acetyl)-4-methoxy-5-methyl-6,7-dihydro-5H-pyrrolo[3,4-d]pyrimidine-2-carbonitrile] | ≥ 2 | ≥ 2 | ≥ 2
12 | COc1nc(C#N)nc2c1C(C)N(C(=O)CC1CN(c3ccc(C4CC4)nc3)C1)C2 (single isomer, unassigned) [Compound I-33, 6-(2-(1-(6-Cyclopropylpyridin-3-yl)azetidin-3-yl)acetyl)-4-methoxy-5-methyl-6,7-dihydro-5H-pyrrolo[3,4-d]pyrimidine-2-carbonitrile] | 0.1 to 0.5 | ≤ 0.1 | 0.1 to 0.5
13 | COc1nc(C#N)nc2c1C(C)N(C(=O)CC1CN(c3ccnc(C(F)(F)F)c3)C1C)C2 (single isomer, unassigned) [Compound I-39, 4-Methoxy-5-methyl-6-(2-(2-methyl-1-(2-(trifluoromethyl)pyridin-4-yl)azetidin-3-yl)acetyl)-6,7-dihydro-5H-pyrrolo[3,4-d]pyrimidine-2-carbonitrile] | 0.5 to 2 | 0.5 to 2 | ≥ 2
14 | COc1nc2c(c(OC(F)F)n1)CN(C(=O)CC1CN(c3cccnc3)C1)C2 [Compound I-76, 1-(4-(Difluoromethoxy)-2-methoxy-5,7-dihydro-6H-pyrrolo[3,4-d]pyrimidin-6-yl)-2-(1-(pyridin-3-yl)azetidin-3-yl)ethan-1-one] | ≥ 2 | ≥ 2 | ≥ 2
15 | COc1nc(C#N)nc2c1C(C)N(C(=O)CC1CN(c3cccc(F)c3F)C1)C2 (single isomer, unassigned) [Compound I-20, 6-(2-(1-(2,3-Difluorophenyl)azetidin-3-yl)acetyl)-4-methoxy-5-methyl-6,7-dihydro-5H-pyrrolo[3,4-d]pyrimidine-2-carbonitrile] | ≥ 2 | ≥ 2 | ≥ 2
16 | COc1nc(C)nc2c1C(C)N(C(=O)CC1CN(c3ccnc(C(F)(F)F)c3)C1)C2 (single isomer, unassigned) [Compound I-53, 1-(4-Methoxy-2,5-dimethyl-5,7-dihydro-6H-pyrrolo[3,4-d]pyrimidin-6-yl)-2-(1-(2-(trifluoromethyl)pyridin-4-yl)azetidin-3-yl)ethan-1-one] | ≥ 2 | ≥ 2 | ≥ 2
17 | CCOc1nc(C)nc2c1CN(C(=O)CC1CN(c3ccnc(C(F)(F)F)c3)C1)C2 [Compound I-46, 1-(4-Ethoxy-2-methyl-5,7-dihydro-6H-pyrrolo[3,4-d]pyrimidin-6-yl)-2-(1-(2-(trifluoromethyl)pyridin-4-yl)azetidin-3-yl)ethan-1-one] | ≥ 2 | 0.5 to 2 | 0.5 to 2
18 | COc1nc(C#N)nc2c1C(C)N(C(=O)CC1CN(c3ccnc(OC(F)F)c3)C1)C2 (single isomer, unassigned) [Compound I-28, 6-(2-(1-(2-(Difluoromethoxy)pyridin-4-yl)azetidin-3-yl)acetyl)-4-methoxy-5-methyl-6,7-dihydro-5H-pyrrolo[3,4-d]pyrimidine-2-carbonitrile] | 0.1 to 0.5 | ≤ 0.1 | ≤ 0.1
19 | COc1nc(C#N)nc2c1C(C)N(C(=O)CC1CN(c3ccnc(C(F)(F)F)c3)C1C)C2 (single isomer, unassigned) [Compound I-38, 4-Methoxy-5-methyl-6-(2-(2-methyl-1-(2-(trifluoromethyl)pyridin-4-yl)azetidin-3-yl)acetyl)-6,7-dihydro-5H-pyrrolo[3,4-d]pyrimidine-2-carbonitrile] | 0.5 to 2 | 0.1 to 0.5 | 0.5 to 2
